Laboratory results taken from article PMC11703214 (bioRxiv, 2024).

Columns and labels:
Type in all cases: cell-based
iAChSnFR = assay: Fluorescence imaging; details: read-out: EC50 (μM), normalized dose-response curves, HEK293T; n = 3
gACh3.0 = assay: Fluorescence imaging; details: read-out: EC50 (μM), normalized dose-response curves, HEK293T; n = 3
β-arrestin pathway = assay: Tango assay; details: ACh 0.01 nM to 100 μM
G protein pathway = assay: Luciferase complementation assay; details: ACh 0.1 nM to 100 μM

Compound CC(=O)OCC[N+](C)(C)C [ACh, acetylcholine] has an EC50 (iAChSnFR) of 8.8 µM and an EC50 (gACh3.0) of 2.2 µM.
For “wild-type human M3R: wild-type human type 3 muscarinic ACh receptor, positive control for downstream coupling”, the “coupling to β-arrestin pathway” value (β-arrestin pathway) was “robust coupling” and the “coupling to G protein pathway” value (G protein pathway) was “robust coupling”.
